From patent publication US8765773B2, “Substituted hydroxamic acids and uses thereof” (Millennium Pharmaceuticals, Inc., priority 2010, dated 2014)

Target: T1, purified human HDAC6 (Homo sapiens, UniProt Q9UBN7)
T1 construct: purchased BPS Bioscience 5006
T1 sequence (Q9UBN7 1-1215): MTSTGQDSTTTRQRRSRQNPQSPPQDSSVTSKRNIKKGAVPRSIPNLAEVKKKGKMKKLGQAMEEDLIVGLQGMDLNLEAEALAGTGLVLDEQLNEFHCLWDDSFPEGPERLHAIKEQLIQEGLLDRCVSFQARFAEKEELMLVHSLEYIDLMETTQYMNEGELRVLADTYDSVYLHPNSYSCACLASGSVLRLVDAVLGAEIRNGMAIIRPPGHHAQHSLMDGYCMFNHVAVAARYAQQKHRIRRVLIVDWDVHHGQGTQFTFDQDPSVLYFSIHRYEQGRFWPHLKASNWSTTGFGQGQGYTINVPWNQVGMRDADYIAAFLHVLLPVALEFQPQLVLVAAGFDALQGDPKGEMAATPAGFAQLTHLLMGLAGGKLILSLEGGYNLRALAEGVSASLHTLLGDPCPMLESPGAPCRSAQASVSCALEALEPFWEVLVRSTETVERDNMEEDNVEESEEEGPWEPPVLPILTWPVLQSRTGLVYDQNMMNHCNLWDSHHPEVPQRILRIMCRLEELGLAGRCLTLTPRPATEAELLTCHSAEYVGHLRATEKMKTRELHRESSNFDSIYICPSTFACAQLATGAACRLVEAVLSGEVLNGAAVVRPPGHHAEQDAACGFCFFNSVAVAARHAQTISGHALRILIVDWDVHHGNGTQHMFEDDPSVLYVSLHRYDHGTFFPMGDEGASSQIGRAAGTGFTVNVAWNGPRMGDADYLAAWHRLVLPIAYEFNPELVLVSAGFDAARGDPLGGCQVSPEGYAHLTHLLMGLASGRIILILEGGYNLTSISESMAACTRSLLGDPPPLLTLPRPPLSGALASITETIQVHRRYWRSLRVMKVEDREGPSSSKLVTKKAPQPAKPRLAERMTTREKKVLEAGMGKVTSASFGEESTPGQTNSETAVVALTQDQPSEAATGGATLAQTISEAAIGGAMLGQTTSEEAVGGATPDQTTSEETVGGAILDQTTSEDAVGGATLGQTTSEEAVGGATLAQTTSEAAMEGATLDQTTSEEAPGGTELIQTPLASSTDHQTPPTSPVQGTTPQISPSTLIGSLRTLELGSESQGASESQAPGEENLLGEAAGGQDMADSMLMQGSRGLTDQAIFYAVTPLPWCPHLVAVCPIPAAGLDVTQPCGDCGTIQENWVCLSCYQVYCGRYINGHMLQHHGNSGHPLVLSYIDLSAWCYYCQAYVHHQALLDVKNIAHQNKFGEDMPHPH
Experiment: HDAC6 Enzyme Assay
Assay type: biochemical
Settings: compound concentration 0.37 μM, read-out: Percent Inhibition
In short: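 Purified human HDAC6 incubated 1 h at 30° C with Ac-Arg-Gly-Lys(Ac)-AMC peptide plus compound or DMSO; stopped with trichostatin A. Deacetylated product trypsin-digested, released AMC read by fluorescence (Ex 340/Em 460 nm). Percent inhibition at one concentration or IC50 from curves relative to DMSO controls.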

| Compound | inhibition at 0.37 µM |
| --- | --- |
| O=C(NO)c1ccc2ncn(CCc3cccc(-c4ccn[nH]4)c3)c(=O)c2c1 [Compound I-323, N-hydroxy-4-oxo-3-{2-[3-(1H-pyrazol-5-yl)phenyl]ethyl}-3,4-dihydroquinazoline-6-carboxamide] | 94.6% |
| O=C(NO)c1ccc2ncn(Cc3cccc(-c4c(Cl)cccc4Cl)c3)c(=O)c2c1 [Compound I-23, 3-[(2′,6′-dichlorobiphenyl-3-yl)methyl]-N-hydroxy-4-oxo-3,4-dihydroquinazoline-6-carboxamide] | 92.2% |
| CC(C)c1ccc(-c2cccc(Cn3cnc4ccc(C(=O)NO)cc4c3=O)c2)cc1 [Compound I-32, N-hydroxy-3-[(4′-isopropylbiphenyl-3-yl)methyl]-4-oxo-3,4-dihydroquinazoline-6-carboxamide] | 83.6% |
| Cc1ccc(-c2cccc(CCn3cnc4ccc(C(=O)NO)cc4c3=O)c2)cc1 [Compound I-301, N-hydroxy-3-[2-(4′-methylbiphenyl-3-yl)ethyl]-4-oxo-3,4-dihydroquinazoline-6-carboxamide] | 88.1% |
| O=C(NO)c1ccc2ccn(-c3ccccc3Cl)c(=O)c2c1 [Compound I-298, 2-(2-chlorophenyl)-N-hydroxy-1-oxo-1,2-dihydroisoquinoline-7-carboxamide] | 94.6% |
| CC(C)(C)OC(=O)N1CCC(c2cccc(CCn3ccc4ccc(C(=O)NO)cc4c3=O)c2)CC1 [Compound I-317, tert-butyl 4-(3-{2-[7-[(hydroxyamino)carbonyl]-1-oxoisoquinolin-2(1H)-yl]ethyl}phenyl)piperidine-1-carboxylate] | 93.2% |
| CN(C)S(=O)(=O)c1cccc(-c2cccc(Cn3cnc4ccc(C(=O)NO)cc4c3=O)c2)c1 [Compound I-244, 3-({3′-[(dimethylamino)sulfonyl]biphenyl-3-yl}methyl)-N-hydroxy-4-oxo-3,4-dihydroquinazoline-6-carboxamide] | 89.4% |
| O=C(NO)c1ccc2c(=O)n(Cc3ccc(C(F)(F)F)cc3)c(C3CCCC3)nc2c1 [Compound I-106, 2-cyclopentyl-N-hydroxy-4-oxo-3-[4-(trifluoromethyl)benzyl]-3,4-dihydroquinazoline-7-carboxamide] | 78.5% |

Same assay, conditions: compound concentration 0.412 μM, read-out: Percent Inhibition

| Compound | inhibition at 0.412 µM |
| --- | --- |
| COc1ccc(N(CCn2ccc3ccc(C(=O)NO)cc3c2=O)Cc2ccc(Cl)cc2)cc1 [Compound I-229, 2-{2-[(4-chlorobenzyl)(4-methoxyphenyl)amino]ethyl}-N-hydroxy-1-oxo-1,2-dihydroisoquinoline-7-carboxamide] | 83.2% |
| O=C(NO)c1ccc2ccn(Cc3cccc(F)c3F)c(=O)c2c1 [Compound I-24, 2-(2,3-difluorobenzyl)-N-hydroxy-1-oxo-1,2-dihydroisoquinoline-7-carboxamide] | 93.7% |
| O=C(NO)c1ccc2ccn(CCCOc3cccc(C(F)(F)F)c3)c(=O)c2c1 [Compound I-176, N-hydroxy-1-oxo-2-{3-[3-(trifluoromethyl)phenoxy]propyl}-1,2-dihydroisoquinoline-7-carboxamide] | 94.2% |
| CS(=O)(=O)c1ccccc1OCCCn1ccc2ccc(C(=O)NO)cc2c1=O [Compound I-51, N-hydroxy-2-{3-[2-(methylsulfonyl)phenoxy]propyl}-1-oxo-1,2-dihydroisoquinoline-7-carboxamide] | 96.2% |
| O=C(NO)c1ccc2ccn(Cc3cccc(OC(F)(F)F)c3)c(=O)c2c1 [Compound I-14, N-hydroxy-1-oxo-2-[3-(trifluoromethoxy)benzyl]-1,2-dihydroisoquinoline-7-carboxamide] | 95.1% |
| O=C(NO)c1ccc2ncn(C(c3ccccc3)c3ccccc3)c(=O)c2c1 [Compound I-4, 3-(diphenylmethyl)-N-hydroxy-4-oxo-3,4-dihydroquinazoline-6-carboxamide] | 79.6% |
| COc1ccc(Nc2nc3ccc(C(=O)NO)cc3c(=O)n2C)cc1 [Compound I-70, N-hydroxy-2-[(4-methoxyphenyl)amino]-3-methyl-4-oxo-3,4-dihydroquinazoline-6-carboxamide] | 46.7% |
